Test results published in paper PMC4742234, “Screening of Drug Metabolizing Enzymes for the Ginsenoside Compound K In Vitro: An Efficient Anti-Cancer Substance Originating from Panax Ginseng” (PLoS ONE, 2016).

Experiments:
[1] = tested on: CYP3A4; parameters: method as in Hao et al.(2008); conditions: baculosomes, ref Hao et al.(2008); cited from earlier work
[2] = substrate: CC(C)=CCC[C@](C)(OC1O[C@H](CO)[C@@H](O)[C@H](O)[C@H]1O)[C@H]1CC[C@]2(C)[C@@H]1[C@H](O)C[C@@H]1[C@@]3(C)CC[C@H](O)C(C)(C)[C@@H]3CC[C@]12C; assay: Kinetic analysis of CK metabolism by recombinant CYP2C9; assay type: in vitro ADME, human; conditions: other: recombinant CYP2C9 10 pmol, CK 10–100 μM; pH 7.4; 37.0 °C
Experimental: The method was conducted according to our previous study with some modifications. The CYP isoform-specific probe reactions used were phenacetin O-deethylation (for CYP1A2), coumarin 7-hydroxylation (for CYP2A6), tolbutamide 4-hydroxylation (for CYP2C9), metoprolol α-hydroxylation (for CYP2D6), chlorzoxazone 6-hydroxylation (for CYP2E1),S-Mephenytoin 4-hydroxylation (for CYP2C19), and midazolam 1-hydroxylation (for CYP3A4). The kinetic study of CK was conducted with HLMs. A 0.2 mL incubation mixture that consisted of CK (as a substrate), the HLMs (0.5 mg/mL) or CYP isoforms (10 pmol), and 0.1 M sodium phosphate buffer (pH 7.4) was pre-warmed for 5 min at 37°C. The reaction was initiated by the addition of 1 mg/mL triphosphopyridine nucleotide (NADPH). […]
The kinetic parameters for the metabolism of CK were determined by incubating increasing concentrations of CK (10–100 μM) at 37°C with the HLMs and NADPH under the incubation conditions as described in detail previously. The equation of CK reaction velocity (V) in the HLMs or CYP isoforms is expressed as V = (C0–Ct)/T/Cp, where C0and Ct are the initial and final concentrations of CK in the incubation solution, respectively, T is the incubation time (min), and Cp is the protein concentration (mg/mL or nmol). All values were expressed as the mean±standard deviation (SD). […]

Question: Which CYP3A4 inhibition [1] does the source give for `CC(C)=CCC[C@](C)(O)[C@H]1CC[C@]2(C)[C@@H]1[C@H](O)C[C@@H]1[C@@]3(C)CC[C@H](O[C@@H]4O[C@H](CO)[C@@H](O)[C@H](O)[C@H]4O)C(C)(C)[C@@H]3CC[C@]12C` [Rh2, reference compound] here?
Answer: moderate

B1: recombinant CYP2C9 (Homo sapiens) (protein)
chain: MDSLVVLVLCLSCLLLLSLWRQSSGRGKLPPGPTPLPVIGNILQIGIKDISKSLTNLSKVYGPVFTLYFGLKPIVVLHGYEAVKEALIDLGEEFSGRGIFPLAERANRGFGIVFSNGKKWKEIRRFSLMTLRNFGMGKRSIEDRVQEEARCLVEELRKTKASPCDPTFILGCAPCNVICSIIFHKRFDYKDQQFLNLMEKLNENIKILSSPWIQICNNFSPIIDYFPGTHNKLLKNVAFMKSYILEKVKEHQESMDMNNPQDFIDCFLMKMEKEKHNQPSEFTIESLENTAVDLFGAGTETTSTTLRYALLLLLKHPEVTAKVQEEIERVIGRNRSPCMQDRSHMPYTDAVVHEVQRYIDLLPTSLPHAVTCDIKFRNYLIPKGTTILISLTSVLHDNKEFPNPEMFDPHHFLDEGGNFKKSKYFMPFSAGKRICVGEALAGMELFLFLTSILQNFNLKSLVDPKNLDTTPVVNGFASVPPFYQLCFIPV
notes: purchased Cypex Ltd. (U.K.)
Question: For B1, which Km [2] is on record?
Answer: 34.63 ± 10.48 µM
